Structures are written as SMILES.

The target of the first test is T1, human TRPA1 (Homo sapiens, UniProt O75762).
T1 construct: expressed in transfected cells
T1 sequence (O75762 whole entry): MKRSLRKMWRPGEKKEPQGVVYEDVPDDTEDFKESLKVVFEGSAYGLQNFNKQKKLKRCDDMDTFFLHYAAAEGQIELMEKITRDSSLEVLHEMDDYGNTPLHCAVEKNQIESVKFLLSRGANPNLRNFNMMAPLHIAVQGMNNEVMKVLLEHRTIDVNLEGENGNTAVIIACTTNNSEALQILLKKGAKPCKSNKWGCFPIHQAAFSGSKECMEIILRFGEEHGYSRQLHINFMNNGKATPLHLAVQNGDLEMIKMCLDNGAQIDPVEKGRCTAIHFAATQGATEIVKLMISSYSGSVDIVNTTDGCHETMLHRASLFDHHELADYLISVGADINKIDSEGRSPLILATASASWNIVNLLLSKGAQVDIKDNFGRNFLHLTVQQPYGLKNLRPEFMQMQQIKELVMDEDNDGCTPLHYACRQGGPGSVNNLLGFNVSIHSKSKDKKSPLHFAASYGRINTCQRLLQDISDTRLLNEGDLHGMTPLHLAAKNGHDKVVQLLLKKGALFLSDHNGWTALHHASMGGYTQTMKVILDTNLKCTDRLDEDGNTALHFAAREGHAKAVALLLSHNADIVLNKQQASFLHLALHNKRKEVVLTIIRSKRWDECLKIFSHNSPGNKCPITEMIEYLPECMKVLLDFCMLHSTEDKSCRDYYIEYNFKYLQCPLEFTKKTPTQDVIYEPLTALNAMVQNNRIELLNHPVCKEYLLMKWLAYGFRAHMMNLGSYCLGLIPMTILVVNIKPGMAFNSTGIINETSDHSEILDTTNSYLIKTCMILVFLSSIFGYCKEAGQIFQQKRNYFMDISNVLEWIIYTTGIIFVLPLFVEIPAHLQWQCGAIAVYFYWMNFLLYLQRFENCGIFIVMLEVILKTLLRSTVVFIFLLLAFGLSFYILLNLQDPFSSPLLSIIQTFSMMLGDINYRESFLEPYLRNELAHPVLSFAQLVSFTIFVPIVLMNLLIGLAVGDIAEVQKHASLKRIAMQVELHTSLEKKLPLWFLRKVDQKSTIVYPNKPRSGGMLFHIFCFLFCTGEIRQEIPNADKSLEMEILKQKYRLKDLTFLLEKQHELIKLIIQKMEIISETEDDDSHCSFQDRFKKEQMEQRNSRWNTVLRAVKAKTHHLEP
The test can be described thus: Cell-based functional intracellular calcium ([Ca2+]i) assay, Fluo-4/Fluo-8, FlexStation, challenge with reference TRPA1 agonist (FFA, AITC or 4-HNE).
Details: not given
As for the experimental part:
A stable HEK293 cell line that expresses human TRPA1 in an inducible manner was employed in this assay. […] The expression of TRPA1 was induced by including 1 μg/ml doxycycline in the culture medium. For the induced cells, ruthenium red (5 μM) was also added to minimize the constitutive TRPA1 channel activity and cells were used 14-18 hrs after induction. To measure [Ca^2+]i changes, cells were seeded in wells of 96-well plates at ˜100,000 cells/well and grown for 14-18 hrs to reach confluency. To prevent cell loss from subsequent washing, the wells were treated with 20 μg/ml polyornithine (MW>30,000, Sigma, St Louis, Mo.) for >15 min and rinsed once with Hank's balanced salt solution without Mg^2+ and Ca^2+. […] In some experiments, Fluo-8-AM was used instead of Fluo-4-AM as the calcium-sensitive fluorescent probe. Probenecid (2 mM) was included in all solutions to prevent the leakage of Fluo-4 or Fluo-8 from the cells. At the end of the incubation, cells were washed three times with ECS and placed in 80 μL of the same solution. Fluorescence changes were measured using a fluid handling integrated fluorescence plate reader, FlexStation (Molecular Devices, Sunnyvale, Calif.). Stock solutions of test compounds were initially solubilized in 100% DMSO and then serially diluted to achieve the desired final concentration. […] Drugs were diluted into ECS at 2× or 3× the desired final concentrations and delivered to the sample plate by an integrated robotic 8-channel pipettor at preprogrammed time points. […] Experiments were performed at 20-25° C. For certain experiments, 0.1% BSA was included with the cells and test compounds.
The kinetic data obtained at each test concentration of drug represents a series of fluorescent intensities as a function of time.
Using a sequential addition protocol, test compounds were initially applied to the cells loaded with Fluo-4 or Fluo-8 and fluorescence changes in each well monitored for 2.5 min. The plate was read again in a kinetic mode after a 15-30 min incubation with the test compounds after obtaining baseline values (about 30 s) and subsequent addition of challenge with a reference TRPA1 agonist. Reference TRPA1 agonists in testing each compound included at least one of flufenamic acid (FFA), allyl isothiocyanate (AITC) and 4-hydroxynonenal (4-HNE).
Antagonist activity can be expressed in terms of IC50 with respect to TRPA1 and agonist activity can be expressed in terms of EC50 with respect to TRPA1.
(In general: Calcium flux is commonly read through the fluorescence of an indicator in the cells.)
For `O=C(c1cc(-c2ccncc2)n(-c2ccccc2)n1)N1CCC2(CC1)OCCO2` [Compound 31], the IC50 is > 25 µM.
Regarding `O=C(c1cc(-c2ccncc2)n(-c2ccc(C(F)(F)F)cc2)n1)N1CCC(N2C(=O)Cc3ccccc32)CC1` [Compound 54], the IC50 is > 25 µM.
Still for that read-out and setting: the figure for `CC1COC2(CCN(C(=O)c3cc(-c4ccncc4)n(-c4ccc(C(F)(F)F)cc4)n3)CC2)O1` (stereo not shown) [Compound 71] is > 25 µM; for `CCCC1COC2(CCN(C(=O)c3cc(-c4ccncc4)n(-c4ccc(C(F)(F)F)cc4)n3)CC2)O1` (stereo not shown) [Compound 74] it is > 25 µM; for `O=C(c1cc(-c2ccncc2)n(-c2ccc(F)c(F)c2)n1)N1CCC(N2C(=O)Cc3ccccc32)CC1` [Compound 76] it is > 25 µM.
As to `CC1COC2(CCN(C(=O)c3cc(-c4ccncc4)n(-c4ccc(F)c(F)c4)n3)CC2)O1` (stereo not shown) [Compound 93], the IC50 was > 25 µM.

The same test, now with this note: HEK293 cells expressing human TRPA1; IC50 class after addition of reference TRPA1 agonist (FFA, AITC or 4-HNE); read-out: human TRPA1-HEK Activity.
For `O=C(c1cc(-c2ccncc2)n(-c2ccccc2)n1)N1CCC2(CCCC2)CC1` [Compound 4], the IC50 is > 25 µM.
The same measure, in the same setting: the figure for `O=C(c1cc(-c2ccncc2)n(-c2ccccc2)n1)N1CC2(CCCC2)C1` [Compound 6] is > 25 µM; for `O=C(c1cc(-c2ccncc2)n(-c2ccccc2)n1)N1CCC2(CC1)C(=O)NCN2c1ccccc1` [Compound 8] it is 5 to 25 µM; for `O=C(c1cc(-c2ccncc2)n(-c2ccccc2)n1)N1CCC2(CCCO2)CC1` [Compound 12] it is > 25 µM.
For the molecule `O=C(c1cc(-c2ccncc2)n(-c2ccccc2)n1)N1CCC2(CCNC2=O)CC1` [Compound 13], the IC50 is > 25 µM.
In the case of `O=C(c1cc(-c2ccncc2)n(-c2ccccc2)n1)N1CCC2(CC1)CC(F)(F)CO2` [Compound 16], the IC50 was in the range of 5 to 25 µM.
Consider `O=C(c1cc(-c2ccncc2)n(-c2ccccc2)n1)N1CCC(n2c(=O)[nH]c3ccccc32)CC1` [Compound 25], for which the IC50 was > 25 µM.
Regarding `N#CC1(c2ccccc2)CCN(C(=O)c2cc(-c3ccncc3)n(-c3ccccc3)n2)CC1` [Compound 28], the IC50 is > 25 µM.
With `O=C1NC(=O)C2(CCN(C(=O)c3cc(-c4ccncc4)n(-c4ccccc4)n3)CC2)N1` [Compound 30], the IC50 was > 25 µM.
Same read-out and setting: for `O=C(c1cc(-c2ccncc2)n(-c2ccccc2)n1)N1CCN(c2ccc(C(F)(F)F)cn2)CC1` [Compound 32] the value was > 25 µM; for `O=C(c1cc(-c2ccncc2)n(-c2ccccc2)n1)N1CCN(c2cc(C(F)(F)F)cc(C(F)(F)F)c2)CC1` [Compound 33], > 25 µM.
As to `O=C(c1cc(-c2ccncc2)n(-c2ccccc2)n1)N1CCN(c2ncccc2C(F)(F)F)CC1` [Compound 34], the IC50 is > 25 µM.
With `O=C(Nc1nc(-c2ccc(C(F)(F)F)cc2)cs1)c1cc(-c2ccncc2)n(-c2ccccc2)n1` [Compound 35], the IC50 was > 25 µM.
Regarding `O=C(Nc1nc(-c2ccc(F)c(C(F)(F)F)c2)cs1)c1cc(-c2ccncc2)n(-c2ccccc2)n1` [Compound 37], the IC50 is > 25 µM.
Consider `O=C(Nc1ccc2[nH]c(=O)oc(=O)c2c1)c1cc(-c2ccncc2)n(-c2ccccc2)n1` [Compound 38], for which the IC50 was in the range of 5 to 25 µM.
Regarding `Cn1c(=O)oc2ccc(NC(=O)c3cc(-c4ccncc4)n(-c4ccccc4)n3)cc21` [Compound 39], the IC50 was > 25 µM.
Consider `CN1C(=O)c2ccc(NC(=O)c3cc(-c4ccncc4)n(-c4ccccc4)n3)cc2C1=O` [Compound 40], for which the IC50 is > 25 µM.
Still for that read-out and setting: for `O=C(c1cc(-c2cccnc2)n(-c2ccc(C(F)(F)F)cc2)n1)N1CCC2(CC1)C(=O)NCN2c1ccc(F)cc1` [Compound 49] the value was 0.001 to 5 µM.
On to `Cc1cnc(-c2cc(C(=O)N3CCC4(CC3)C(=O)NCN4c3ccc(F)cc3)nn2-c2ccc(C(F)(F)F)cc2)c(C)n1` [Compound 52], for which the IC50 was > 25 µM.
For `O=C(c1cc(-c2ccncc2)n(-c2ccc(C(F)(F)F)cc2)n1)N1CCC2(CC1)C(=O)NCN2c1ccc(F)cc1` [Compound 55], the IC50 is 0.001 to 5 µM.
The same measure, in the same setting: for `O=C(c1cc(-c2ccncc2)n(-c2ccc(C(F)(F)F)cc2)n1)N1CCC2(CC1)C(=O)NCN2c1ccc(Cl)cc1` [Compound 56] the value was > 25 µM; for `O=C(c1cc(-c2ccncc2)n(-c2ccc(C(F)(F)F)cc2)n1)N1CCC2(CC1)OCc1ccccc12` [Compound 57], > 25 µM; for `O=C1OC2(CCN(C(=O)c3cc(-c4ccncc4)n(-c4ccc(C(F)(F)F)cc4)n3)CC2)c2ccccc21` [Compound 58], > 25 µM.
In the case of `O=C(c1cc(-c2ccncc2)n(-c2ccc(C(F)(F)F)cc2)n1)N1CC(=O)N2CCc3ccccc3C2C1` (stereo not shown) [Compound 60], the IC50 is 5 to 25 µM.
On to `Cn1c(=O)n(C2CCN(C(=O)c3cc(-c4ccncc4)n(-c4ccc(C(F)(F)F)cc4)n3)CC2)c2ccccc21` [Compound 61], for which the IC50 is > 25 µM.
Consider `O=C(c1cc(-c2ccncc2)n(-c2ccc(C(F)(F)F)cc2)n1)N1CCC(N2C(=O)OC[C@H]2c2ccccc2)CC1` [Compound 62], for which the IC50 is > 25 µM.
Regarding `O=C(c1cc(-c2ccncc2)n(-c2ccc(C(F)(F)F)cc2)n1)N1CCC2(CC1)SCCS2` [Compound 63], the IC50 is > 25 µM.
Turning to `O=C(c1cc(-c2ccncc2)n(-c2ccc(C(F)(F)F)cc2)n1)N1CCC(c2nc3ccccc3o2)CC1` [Compound 65], the IC50 was > 25 µM.
In the case of `O=C(Nc1ccc2c(c1)OC(F)(F)O2)c1cc(-c2ccncc2)n(-c2ccc(C(F)(F)F)cc2)n1` [Compound 66], the IC50 was > 25 µM.
On to `CN1C(=O)COc2cc(NC(=O)c3cc(-c4ccncc4)n(-c4ccc(C(F)(F)F)cc4)n3)ccc21` [Compound 67], for which the IC50 is > 25 µM.
Still for that read-out and setting: the figure for `O=C1CSC2(CCN(C(=O)c3cc(-c4ccncc4)n(-c4ccc(C(F)(F)F)cc4)n3)CC2)N1` [Compound 68] is > 25 µM; for `Cn1c(=O)c(=O)n(C)c2cc(NC(=O)c3cc(-c4ccncc4)n(-c4ccc(C(F)(F)F)cc4)n3)ccc21` [Compound 69] it is > 25 µM; for `O=C(Nc1ccc2c(c1)COC2=O)c1cc(-c2ccncc2)n(-c2ccc(C(F)(F)F)cc2)n1` [Compound 70] it is 5 to 25 µM.
Consider `O=C(c1cc(-c2ccncc2)n(-c2ccc(C(F)(F)F)cc2)n1)N1CCN2C(=O)OC[C@@H]2C1` [Compound 72], for which the IC50 lay in the range of 5 to 25 µM.
On the same count and under the same terms, the figure for `O=C(c1cc(-c2ccncc2)n(-c2ccc(C(F)(F)F)cc2)n1)N1CCC2(CC1)NCN(c1ccccc1)C2=O` [Compound 73] is > 25 µM.
As to `CN1C(=O)NC2(CCN(C(=O)c3cc(-c4ccncc4)n(-c4ccc(C(F)(F)F)cc4)n3)CC2)C1=O` [Compound 75], the IC50 was > 25 µM.
Regarding `O=C(c1cc(-c2ccncc2)n(-c2ccc(F)c(F)c2)n1)N1CCC2(CC1)C(=O)NCN2c1ccc(Cl)cc1` [Compound 78], the IC50 is > 25 µM.
In the case of `O=C(c1cc(-c2ccncc2)n(-c2ccc(F)c(F)c2)n1)N1CCC2(CC1)OCc1ccccc12` [Compound 79], the IC50 was > 25 µM.
The same measure, in the same setting: for `O=C1OC2(CCN(C(=O)c3cc(-c4ccncc4)n(-c4ccc(F)c(F)c4)n3)CC2)c2ccccc21` [Compound 80] the value was > 25 µM; for `O=C(c1cc(-c2ccncc2)n(-c2ccc(F)c(F)c2)n1)N1CC(=O)N2CCc3ccccc3C2C1` (stereo not shown) [Compound 82], > 25 µM; for `Cn1c(=O)n(C2CCN(C(=O)c3cc(-c4ccncc4)n(-c4ccc(F)c(F)c4)n3)CC2)c2ccccc21` [Compound 83], > 25 µM.
With `O=C(c1cc(-c2ccncc2)n(-c2ccc(F)c(F)c2)n1)N1CCC(N2C(=O)OC[C@H]2c2ccccc2)CC1` [Compound 84], the IC50 is > 25 µM.
Consider `O=C(c1cc(-c2ccncc2)n(-c2ccc(F)c(F)c2)n1)N1CCC2(CC1)SCCS2` [Compound 85], for which the IC50 was > 25 µM.
The same measure, in the same setting: for `O=C(c1cc(-c2ccncc2)n(-c2ccc(F)c(F)c2)n1)N1CCC(c2nc3ccccc3o2)CC1` [Compound 87] the value was > 25 µM.
In the case of `O=C(Nc1ccc2c(c1)OC(F)(F)O2)c1cc(-c2ccncc2)n(-c2ccc(F)c(F)c2)n1` [Compound 88], the IC50 is 5 to 25 µM.
On to `CN1C(=O)COc2cc(NC(=O)c3cc(-c4ccncc4)n(-c4ccc(F)c(F)c4)n3)ccc21` [Compound 89], for which the IC50 is > 25 µM.
For `O=C1CSC2(CCN(C(=O)c3cc(-c4ccncc4)n(-c4ccc(F)c(F)c4)n3)CC2)N1` [Compound 90], the IC50 is > 25 µM.
For `Cn1c(=O)c(=O)n(C)c2cc(NC(=O)c3cc(-c4ccncc4)n(-c4ccc(F)c(F)c4)n3)ccc21` [Compound 91], the IC50 is > 25 µM.
For the molecule `O=C(Nc1ccc2c(c1)COC2=O)c1cc(-c2ccncc2)n(-c2ccc(F)c(F)c2)n1` [Compound 92], the IC50 is > 25 µM.

The values above are taken from patent US9951046B2, “TRPA1 modulators” (Algomedix, Inc., priority 2014, dated 2018).
